Consider 25 compounds from patent publication US9101616B2, “Aryl substituted carboxamide derivatives as calcium or sodium channel blockers” (RaQualia Pharma Inc., priority 2009, dated 2015).

For orientation: IC50 means the concentration at which inhibition is half-maximal. The low end stands for inhibition by little substance, the high end for a need for much substance.

The target of this test is T1, human T-type channel alpha-1H (CaV 3.2) (Homo sapiens, UniProt O95180).
T1 construct: expressed in transfected cells; host or cells: HEK 293
T1 sequence (O95180 whole entry): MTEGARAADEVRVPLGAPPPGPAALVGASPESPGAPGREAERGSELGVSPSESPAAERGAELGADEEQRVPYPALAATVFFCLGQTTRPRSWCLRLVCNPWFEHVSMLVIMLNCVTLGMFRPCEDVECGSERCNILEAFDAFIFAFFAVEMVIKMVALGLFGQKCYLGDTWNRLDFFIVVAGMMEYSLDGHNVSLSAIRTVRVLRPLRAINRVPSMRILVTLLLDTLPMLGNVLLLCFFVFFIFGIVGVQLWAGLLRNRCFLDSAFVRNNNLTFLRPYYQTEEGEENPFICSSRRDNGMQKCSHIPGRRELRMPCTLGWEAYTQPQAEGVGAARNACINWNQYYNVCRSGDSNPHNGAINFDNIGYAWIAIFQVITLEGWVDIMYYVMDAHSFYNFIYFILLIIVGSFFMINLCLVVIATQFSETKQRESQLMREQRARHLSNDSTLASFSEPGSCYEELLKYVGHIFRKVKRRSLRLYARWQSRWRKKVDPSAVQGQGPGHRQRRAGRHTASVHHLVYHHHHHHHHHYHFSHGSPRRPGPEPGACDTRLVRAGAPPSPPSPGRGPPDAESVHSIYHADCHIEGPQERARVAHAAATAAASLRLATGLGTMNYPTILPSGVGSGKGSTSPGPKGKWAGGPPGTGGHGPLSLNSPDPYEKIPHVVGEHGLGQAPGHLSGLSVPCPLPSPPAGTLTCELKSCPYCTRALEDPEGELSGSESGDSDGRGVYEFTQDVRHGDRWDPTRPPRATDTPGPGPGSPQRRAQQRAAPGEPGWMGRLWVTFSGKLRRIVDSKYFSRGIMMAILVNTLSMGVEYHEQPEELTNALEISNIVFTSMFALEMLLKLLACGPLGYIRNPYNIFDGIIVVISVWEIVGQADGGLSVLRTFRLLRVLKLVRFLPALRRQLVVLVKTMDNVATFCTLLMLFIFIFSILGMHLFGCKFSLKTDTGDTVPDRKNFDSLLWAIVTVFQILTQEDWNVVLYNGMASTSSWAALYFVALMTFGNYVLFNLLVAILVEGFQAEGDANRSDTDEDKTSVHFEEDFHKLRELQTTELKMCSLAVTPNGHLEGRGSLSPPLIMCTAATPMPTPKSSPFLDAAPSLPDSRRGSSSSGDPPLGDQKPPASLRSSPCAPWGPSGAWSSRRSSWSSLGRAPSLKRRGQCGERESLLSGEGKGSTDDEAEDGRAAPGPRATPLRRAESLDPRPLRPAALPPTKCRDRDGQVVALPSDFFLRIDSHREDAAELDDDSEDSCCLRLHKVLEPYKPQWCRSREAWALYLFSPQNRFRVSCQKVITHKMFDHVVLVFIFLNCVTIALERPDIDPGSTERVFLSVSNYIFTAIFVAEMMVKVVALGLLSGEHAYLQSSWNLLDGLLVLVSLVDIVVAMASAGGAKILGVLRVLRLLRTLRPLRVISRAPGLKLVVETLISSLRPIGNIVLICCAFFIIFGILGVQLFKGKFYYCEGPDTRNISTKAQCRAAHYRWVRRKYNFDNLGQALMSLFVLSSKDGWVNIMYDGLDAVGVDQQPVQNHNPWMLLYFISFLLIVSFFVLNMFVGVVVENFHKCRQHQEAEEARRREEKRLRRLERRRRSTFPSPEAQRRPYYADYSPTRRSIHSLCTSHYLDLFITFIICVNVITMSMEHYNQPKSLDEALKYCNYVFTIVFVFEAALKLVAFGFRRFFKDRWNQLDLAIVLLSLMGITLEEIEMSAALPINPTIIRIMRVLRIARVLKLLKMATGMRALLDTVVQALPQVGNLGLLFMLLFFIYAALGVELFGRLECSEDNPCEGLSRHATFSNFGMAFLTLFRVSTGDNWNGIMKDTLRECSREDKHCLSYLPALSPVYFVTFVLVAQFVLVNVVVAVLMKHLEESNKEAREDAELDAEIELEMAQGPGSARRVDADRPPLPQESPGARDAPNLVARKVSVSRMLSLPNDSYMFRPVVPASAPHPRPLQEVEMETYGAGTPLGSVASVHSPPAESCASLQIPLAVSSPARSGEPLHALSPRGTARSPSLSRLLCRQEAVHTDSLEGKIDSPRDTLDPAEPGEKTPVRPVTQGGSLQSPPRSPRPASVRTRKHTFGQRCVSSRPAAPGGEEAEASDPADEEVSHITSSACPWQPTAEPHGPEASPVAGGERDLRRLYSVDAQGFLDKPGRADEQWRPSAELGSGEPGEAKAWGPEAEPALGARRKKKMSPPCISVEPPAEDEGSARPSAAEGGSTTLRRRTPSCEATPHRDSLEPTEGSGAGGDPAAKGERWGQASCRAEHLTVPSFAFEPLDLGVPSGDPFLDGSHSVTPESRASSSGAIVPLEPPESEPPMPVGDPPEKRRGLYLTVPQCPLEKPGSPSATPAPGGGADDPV
Description: Ca2+ Influx Assay (cell-based fluorescent, FDSS). The conditions noted are these: HEK 293 cells expressing human CaV 3.2. Here is the method: Inhibition of T-type calcium channel activity was determined by cell-based flu-orescent Ca^2+ influx assay, in which potassium ionophore was added to decrease resting membrane potential and extra-cellular high-K^+ stimulation was used to modulate the membrane potential of the cell. The changes in fluorescent signal were monitored by the cell imaging technology by Hamamatsu Photonics's Functional Drug Screening System (FDSS).
HEK 293 cells expressing the human T-type channel alpha-1H (CaV 3.2) were maintained in DMEM supplemented with 10% heat-inactivated FBS, 100 units/ml Penicillin, 100 microg/ml Streptomycin, 150 microg/ml Zeocin, 300 microg/ml Geneticin. The cells were grown in a 5% CO2 humidified incubator at 37° C.
• 1. Cells were harvested and seeded in a poly-D-lysine coated black-sided clear bottom 384-well plate at density of 10,000 cells/well at 24 hours prior to assay. • 2. Incubate at 37° C. in 5% CO2. Day Two: • 1. Wash each well with assay buffer (see below) and leave 20 RI using plate washer, ELx-405 Select CW (BIO-TEK). • 2. Add 20 μL of assay buffer containing 6 μM Fluo-4-AM (Molecular Probes) and 0.005% Pluronic F-127 to each well. • 3. Incubate the plate at 37° C. for 1 hour. • 4. Wash each well assay buffer (see below) and leave 20 μl using plate washer, ELx-405 Select CW (BIO-TEK). • 5. Add 10 μl of compound solution into each well by FDSS6000 and leave the plate for 4.5 min, and then add 10 μl of potassium ionophore solution. • 6. Add 20 μl of high-K^+ depolarizing solution (see below) and monitor the change of fluorescent signal.
The IC50 values for compounds of the present invention were determined from 7-point dose-response studies. Curves were generated using the average of duplicate wells for each data point. Finally, the IC50 values are calculated with the best-fit dose curve determined by XLfit.

Take `Cc1cccc([C@H]2C[C@@H]2C(=O)N[C@H](C)c2cnc(OCC(F)(F)F)cn2)c1` (relative stereo) [Example 273, (1S*,2S*)-2-m-tolyl-N-((R)-1-(5-(2,2,2-trifluoroethoxy)pyrazin-2-yl)ethyl)cyclopropanecarboxamide]: the 50% inhibitory concentration (IC50) is ≤ 300 nM.
To `C[C@@H](NC(=O)[C@H]1C[C@@H]1c1cccc2cc[nH]c12)c1ccc(OCC(F)(F)F)cn1` (relative stereo) [Example 275, (1S*,2S*)-2-(1H-indol-7-yl)-N-((R)-1-(5-(2,2,2-trifluoroethoxy)pyridin-2-yl)ethyl)cyclopropanecarboxamide] belongs ≤ 300 nM.
As for `C[C@@H](NC(=O)[C@@H]1C[C@H]1c1cccc2cc[nH]c12)c1ccc(OCC(F)(F)F)cn1` (relative stereo) [Example 276, (1R*,2R*)-2-(1H-indol-7-yl)-N-((R)-1-(5-(2,2,2-trifluoroethoxy)pyridin-2-yl)ethyl)cyclopropanecarboxamide], the IC50 is ≤ 300 nM.
To `C[C@@H](NC(=O)[C@@H]1C[C@H]1c1cccc2[nH]ccc12)c1ccc(OCC(F)(F)F)cn1` (relative stereo) [Example 277, (1R*,2R*)-2-(1H-indol-4-yl)-N-((R)-1-(5-(2,2,2-trifluoroethoxy)pyridin-2-yl)ethyl)cyclopropanecarboxamide] belongs ≤ 300 nM; to `C[C@@H](NC(=O)[C@@H]1C[C@H]1c1cccc2[nH]ccc12)c1cnc(OCC(F)(F)F)cn1` (relative stereo) [Example 279, (1R*,2R*)-2-(1H-Indol-4-yl)-N-((R)-1-(5-(2,2,2-trifluoroethoxy)pyrazin-2-yl)ethyl)cyclopropanecarboxamide], ≤ 300 nM; to `C[C@@H](NC(=O)[C@H]1C[C@@H]1c1ccccc1)c1ccc(OCC(F)(F)F)cn1` (relative stereo) [Example 280, (1S*,2S*)-2-phenyl-N-((R)-1-(5-(2,2,2-trifluoroethoxy)pyridin-2-yl)ethyl)cyclopropanecarboxamide], ≤ 300 nM.
To `C[C@@H](NC(=O)[C@H]1C[C@@H]1c1ccccc1)c1cnc(OCC(F)(F)F)cn1` (relative stereo) [Example 282, (1S*,2S*)-2-phenyl-N-((R)-1-(5-(2,2,2-trifluoroethoxy)pyrazin-2-yl)ethyl)cyclopropanecarboxamide] belongs ≤ 300 nM; to `C[C@@H](NC(=O)[C@H]1C[C@@H]1c1ccccc1)c1ccc(OCC(F)(F)F)nc1` (relative stereo) [Example 284, (1S*,2S*)-2-phenyl-N-((R)-1-(6-(2,2,2-trifluoroethoxy)pyridin-3-yl)ethyl)cyclopropanecarboxamide], ≤ 300 nM; to `C[C@@H](NC(=O)[C@H]1C[C@@H]1c1nc2ccccc2[nH]1)c1cnc(OCC(F)(F)F)cn1` (relative stereo) [Example 286, (1S*,2S*)-2-(1H-benzo[d]imidazol-2-yl)-N-((R)-1-(5-(2,2,2-trifluoroethoxy)pyrazin-2-yl)ethyl)cyclopropanecarboxamide], ≤ 300 nM.
To `C[C@@H](NC(=O)[C@H]1C[C@@H]1c1nc2ccccc2[nH]1)c1ccc(OCC(F)(F)F)nc1` (relative stereo) [Example 287, (1S*,2S*)-2-(1H-benzo[d]imidazol-2-yl)-N-((R)-1-(6-(2,2,2-trifluoroethoxy)pyridin-3-yl)ethyl)cyclopropanecarboxamide] belongs ≤ 300 nM; to `C[C@@H](NC(=O)[C@@H]1C[C@H]1c1nc2cc(F)ccc2[nH]1)c1ccc(OCC(F)(F)F)nc1` (relative stereo) [Example 289, (1R*,2R*)-2-(5-fluoro-1H-benzo[d]imidazol-2-yl)-N-((R)-1-(6-(2,2,2-trifluoroethoxy)pyridin-3-yl)ethyl) cyclopropanecarboxamide], ≤ 300 nM; to `C[C@@H](NC(=O)[C@H]1C[C@@H]1COc1cccc(F)c1)c1ccc(OCC(F)(F)F)cn1` (relative stereo) [Example 294, (1S*,2S*)-2-((3-fluorophenoxy)methyl)-N-((R)-1-(5-(2,2,2-trifluoroethoxy)pyridin-2-yl)ethyl)cyclopropanecarboxamide], ≤ 300 nM.
Regarding `C[C@@H](NC(=O)[C@H]1C[C@@H]1COc1ccc(F)cc1)c1ccc(OCC(F)(F)F)cn1` (relative stereo) [Example 296, (1S*,2S*)-2-((4-fluorophenoxy)methyl)-N-((R)-1-(5-(2,2,2-trifluoroethoxy)pyridin-2-yl)ethyl)cyclopropanecarboxamide], the IC50 was ≤ 300 nM.
To `C[C@@H](NC(=O)[C@H]1C[C@@H]1c1ccc(OCc2ccccn2)cc1)c1ccc(OCC(F)(F)F)cn1` (relative stereo) [Example 305, (1S*,2S*)-2-(4-(pyridin-2-ylmethoxy)phenyl)-N-((R)-1-(5-(2,2,2-trifluoroethoxy)pyridin-2-yl)ethyl)cyclopropanecarboxamide] belongs ≤ 300 nM; to `C[C@@H](NC(=O)[C@H]1C[C@@H]1c1cccc(OCc2ccccn2)c1)c1ccc(OCC(F)(F)F)cn1` (relative stereo) [Example 306, (1S*,2S*)-2-(3-(pyridin-2-ylmethoxy)phenyl)-N-((R)-1-(5-(2,2,2-trifluoroethoxy)pyridin-2-yl)ethyl)cyclopropanecarboxamide], ≤ 300 nM; to `COc1ccc([C@H]2C[C@@H]2C(=O)N[C@H](C)c2ccc(OCC3CC3)cn2)cc1C` (relative stereo) [Example 307, (1S*,2S*)-N-((R)-1-(5-(cyclopropyl-methoxy)pyridin-2-yl)ethyl)-2-(4-methoxy-3-methylphenyl) cyclopropanecarboxamide], ≤ 300 nM.
Under `COc1ccc([C@H]2C[C@@H]2C(=O)N[C@H](C)c2cnc(OCC(F)(F)F)cn2)cc1C` (relative stereo) [Example 309, (1S*,2S*)-2-(4-methoxy-3-methylphenyl)-N-((R)-1-(5-(2,2,2-trifluomethoxy)pyrazin-2-yl)ethyl)cyclopropanecarboxamide] stands ≤ 300 nM; under `COc1ccc([C@@H]2C[C@H]2C(=O)N[C@H](C)c2cnc(OCC(F)(F)F)cn2)cc1C` (relative stereo) [Example 310, (1R*,2R*)-2-(4-methoxy-3-methylphenyl)-N-((R)-1-(5-(2,2,2-trifluoroethoxy)pyrazin-2-yl)ethyl)cyclopropanecarboxamide], ≤ 300 nM.
To `C[C@@H](NC(=O)[C@H]1C[C@@H]1c1cccc2cc[nH]c12)c1ccc(OCC2CC2)cn1` (relative stereo) [Example 316, (1S*,2S*)-N-((R)-1-(5-(cyclopropylmethoxy)pyridin-2-yl)ethyl)-2-(1H-indol-7-yl)cyclopropanecarboxamide] belongs ≤ 300 nM; to `C[C@@H](NC(=O)[C@@H]1C[C@H]1c1cccc2cc[nH]c12)c1ccc(OCC2CC2)cn1` (relative stereo) [Example 317, (1R*,2R*)-N-((R)-1-(5-(cyclopropylmethoxy)pyridin-2-yl)ethyl)-2-(1H-indol-7-yl)cyclopropanecarboxamide], ≤ 300 nM; to `C[C@@H](NC(=O)[C@H]1C[C@@H]1COc1ccccc1)c1cnc(OCC(F)(F)F)cn1` (relative stereo) [Example 318, (1S*,2S*)-2-(phenoxymethyl)-N-((R)-1-(5-(2,2,2-trifluoroethoxy)pyrazin-2-yl)ethyl)cyclopropanecarboxamide], ≤ 300 nM.
Consider `C[C@@H](NC(=O)[C@H]1C[C@@H]1COc1ccccc1)c1ccc(OCC(F)(F)F)nc1` (relative stereo) [Example 320, (1S*,2S*)-2-(phenoxymethyl)-N-((R)-1-(6-(2,2,2-trifluoroethoxy)pyridin-3-yl)ethyl)cyclopropanecarboxamide], for which the IC50 was ≤ 300 nM.
`C[C@@H](NC(=O)[C@H]1C[C@@H]1c1cccc2cc[nH]c12)c1cnc(OCC(F)(F)F)cn1` (relative stereo) [Example 322, (1S*,2S*)-2-(1H-indol-7-yl)-N-((R)-1-(5-(2,2,2-trifluoroethoxy)pyrazin-2-yl)ethyl)cyclopropanecarboxamide]: the IC50 was ≤ 300 nM.
To `C[C@@H](NC(=O)[C@@H]1C[C@H]1c1cccc2cc[nH]c12)c1cnc(OCC(F)(F)F)cn1` (relative stereo) [Example 323, (1R*,2R*)-2-(1H-indol-7-yl)-N-((R)-1-(5-(2,2,2-trifluoroethoxy)pyrazin-2-yl)ethyl)cyclopropanecarboxamide] belongs ≤ 300 nM; to `C[C@@H](NC(=O)[C@@H]1C[C@H]1c1ccc2ccccc2n1)c1ccc(OCC(F)(F)F)cn1` (relative stereo) [Example 325, (1R*,2R*)-2-(quinolin-2-yl)-N-((R)-1-(5-(2,2,2-trifluoroethoxy)pyridin-2-yl)ethyl)cyclopropanecarboxamide], ≤ 300 nM.
